Test results taken from PubChem BioAssay (NCI).
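Compound exposure: 48 hours, 5 concentrations, 96-well plates. TGI: concentration producing complete growth inhibition.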

Assays:
Test in all cases: NCI anticancer screen, dose series, 48 h
[1] = test system: NCI-H23 lung
[2] = test system: SK-MEL-5 melanoma
[3] = test system: CAKI-1 renal
[4] = test system: UACC-257 melanoma
[5] = test system: RXF 393 renal
[6] = test system: SN12C renal
[7] = test system: HS 578T breast
[8] = test system: BT-549 breast
[9] = test system: A498 renal
[10] = test system: OVCAR-5 ovarian
[11] = test system: TK-10 renal
[12] = test system: OVCAR-3 ovarian
[13] = test system: ACHN renal
[14] = test system: SW-620 colon
[15] = test system: HCC-2998 colon
[16] = test system: SF-268 CNS
[17] = test system: NCI-H460 lung
[18] = test system: HT29 colon
[19] = test system: HOP-62 NSCLC
[20] = test system: NCI/ADR-RES ovarian
[21] = test system: MDA-MB-231 breast
[22] = test system: MALME-3M melanoma
[23] = test system: MDA-N
[24] = test system: NCI-H522 lung
[25] = test system: HCT-15 colon
[26] = test system: T-47D breast
[27] = test system: LOX IMVI melanoma
[28] = test system: CCRF-CEM leukemia
[29] = test system: IGROV1 ovarian
[30] = test system: MOLT-4 leukemia
[31] = test system: U251 CNS
[32] = test system: OVCAR-8 ovarian
[33] = test system: COLO 205 colon
[34] = test system: PC-3 prostate
[35] = test system: 786-0 renal
[36] = test system: M14 melanoma
[37] = test system: SK-MEL-2 melanoma
[38] = test system: NCI-H226 lung
[39] = test system: HCT-116 colon
[40] = test system: SK-OV-3 ovarian
[41] = test system: HL-60(TB) leukemia
[42] = test system: MDA-MB-435
[43] = test system: SF-295 CNS
[44] = test system: KM12 colon
[45] = test system: SK-MEL-28 melanoma
[46] = test system: OVCAR-4 ovarian
[47] = test system: EKVX NSCLC
[48] = test system: SNB-19 CNS
[49] = test system: SF-539 CNS
[50] = test system: RPMI-8226 leukemia
[51] = test system: SNB-75 CNS
[52] = test system: DU-145 prostate
[53] = test system: A549 NSCLC
[54] = test system: UO-31 renal
[55] = test system: MCF7 breast
[56] = test system: K-562 leukemia
[57] = test system: HOP-92 NSCLC
[58] = test system: UACC-62 melanoma
[59] = test system: SR leukemia

## ClC1=C(Cl)C(Cl)(Cl)SS1
[1]
  TGI: > 10 µM
[2]
  TGI: > 10 µM
[3]
  TGI: 6.76 µM
[4]
  TGI: > 7.95 µM
[5]
  TGI: > 10 µM
[6]
  TGI: > 10 µM
[7]
  TGI: > 10 µM
[8]
  TGI: > 10 µM
[9]
  TGI: > 10 µM
[10]
  TGI: > 10 µM
[11]
  TGI: > 10 µM
[12]
  TGI: > 9.5 µM
[13]
  TGI: > 10 µM
[14]
  TGI: 5.82 µM
[15]
  TGI: > 10 µM
[16]
  TGI: > 10 µM
[17]
  TGI: > 10 µM
[18]
  TGI: > 10 µM
[19]
  TGI: > 10 µM
[20]
  TGI: > 10 µM
[21]
  TGI: > 10 µM
[22]
  TGI: > 6.61 µM
[23]
  TGI: > 10 µM
[24]
  TGI: > 6.85 µM
[25]
  TGI: > 10 µM
[26]
  TGI: > 10 µM
[27]
  TGI: > 10 µM
[28]
  TGI: > 8 µM
[29]
  TGI: > 10 µM
[30]
  TGI: 3.61 µM
[31]
  TGI: > 10 µM
[32]
  TGI: > 10 µM
[33]
  TGI: 3.73 µM
[34]
  TGI: > 10 µM
[35]
  TGI: > 6.03 µM
[36]
  TGI: > 10 µM
[37]
  TGI: > 10 µM
[38]
  TGI: > 10 µM
[39]
  TGI: > 6.72 µM
[40]
  TGI: > 10 µM
[41]
  TGI: > 7.32 µM
[42]
  TGI: > 10 µM
[43]
  TGI: > 10 µM
[44]
  TGI: > 10 µM
[45]
  TGI: > 10 µM
[46]
  TGI: 9.81 µM
[47]
  TGI: > 10 µM
[48]
  TGI: > 10 µM
[49]
  TGI: > 10 µM
[50]
  TGI: 6.73 µM
[51]
  TGI: > 10 µM
[52]
  TGI: > 10 µM
[53]
  TGI: > 10 µM
[54]
  TGI: > 6.06 µM
[55]
  TGI: > 10 µM
[56]
  TGI: > 7.82 µM
[57]
  TGI: > 8.63 µM
[58]
  TGI: > 10 µM
[59]
  TGI: 5.35 µM

## CN(/N=C(\C(=O)O)c1ccccc1)C1=NCCN1
[1]
  TGI: > 100 µM
[2]
  TGI: > 100 µM
[3]
  TGI: > 100 µM
[4]
  TGI: > 100 µM
[5]
  TGI: > 100 µM
[6]
  TGI: > 100 µM
[7]
  TGI: > 100 µM
[8]
  TGI: > 100 µM
[9]
  TGI: > 100 µM
[10]
  TGI: > 100 µM
[11]
  TGI: > 100 µM
[12]
  TGI: > 100 µM
[13]
  TGI: > 100 µM
[14]
  TGI: > 100 µM
[15]
  TGI: > 100 µM
[16]
  TGI: > 100 µM
[17]
  TGI: > 100 µM
[18]
  TGI: > 100 µM
[19]
  TGI: > 100 µM
[20]
  TGI: > 100 µM
[21]
  TGI: > 100 µM
[22]
  TGI: > 100 µM
[23]
  TGI: > 100 µM
[24]
  TGI: > 100 µM
[25]
  TGI: > 100 µM
[26]
  TGI: > 100 µM
[27]
  TGI: > 100 µM
[28]
  TGI: > 100 µM
[29]
  TGI: > 100 µM
[30]
  TGI: > 100 µM
[32]
  TGI: > 100 µM
[33]
  TGI: > 100 µM
[34]
  TGI: > 100 µM
[35]
  TGI: > 100 µM
[37]
  TGI: > 100 µM
[38]
  TGI: > 100 µM
[39]
  TGI: > 100 µM
[40]
  TGI: > 100 µM
[41]
  TGI: > 100 µM
[42]
  TGI: > 100 µM
[43]
  TGI: > 100 µM
[44]
  TGI: > 100 µM
[45]
  TGI: > 100 µM
[46]
  TGI: > 100 µM
[47]
  TGI: > 100 µM
[49]
  TGI: > 100 µM
[50]
  TGI: > 100 µM
[51]
  TGI: > 100 µM
[52]
  TGI: > 100 µM
[53]
  TGI: > 100 µM
[54]
  TGI: > 100 µM
[55]
  TGI: > 100 µM
[56]
  TGI: > 100 µM
[57]
  TGI: > 100 µM
[58]
  TGI: > 100 µM
[59]
  TGI: > 100 µM

## CCCc1[nH]nc(C(N)=O)c1N=NN(C)C
[1]
  TGI: > 100 µM
[2]
  TGI: > 100 µM
[3]
  TGI: > 100 µM
[4]
  TGI: > 100 µM
[5]
  TGI: > 100 µM
[6]
  TGI: > 100 µM
[7]
  TGI: > 100 µM
[8]
  TGI: > 100 µM
[9]
  TGI: > 100 µM
[11]
  TGI: > 100 µM
[12]
  TGI: > 100 µM
[13]
  TGI: > 100 µM
[14]
  TGI: > 100 µM
[15]
  TGI: > 100 µM
[16]
  TGI: > 100 µM
[18]
  TGI: > 100 µM
[19]
  TGI: > 100 µM
[20]
  TGI: > 100 µM
[21]
  TGI: > 100 µM
[22]
  TGI: > 100 µM
[23]
  TGI: > 100 µM
[24]
  TGI: 74.9 µM
[25]
  TGI: > 100 µM
[26]
  TGI: > 100 µM
[27]
  TGI: > 100 µM
[28]
  TGI: > 100 µM
[29]
  TGI: > 100 µM
[30]
  TGI: 49 µM
[31]
  TGI: > 100 µM
[32]
  TGI: > 100 µM
[33]
  TGI: > 100 µM
[34]
  TGI: > 100 µM
[35]
  TGI: > 100 µM
[36]
  TGI: > 100 µM
[37]
  TGI: > 100 µM
[38]
  TGI: > 100 µM
[39]
  TGI: > 100 µM
[40]
  TGI: > 100 µM
[41]
  TGI: > 100 µM
[42]
  TGI: > 100 µM
[43]
  TGI: > 100 µM
[44]
  TGI: > 100 µM
[45]
  TGI: > 100 µM
[46]
  TGI: > 100 µM
[47]
  TGI: > 100 µM
[48]
  TGI: > 100 µM
[49]
  TGI: > 100 µM
[50]
  TGI: > 100 µM
[51]
  TGI: > 100 µM
[52]
  TGI: > 100 µM
[53]
  TGI: > 100 µM
[54]
  TGI: > 100 µM
[55]
  TGI: 80 µM
[56]
  TGI: > 100 µM
[57]
  TGI: > 100 µM
[58]
  TGI: > 100 µM
[59]
  TGI: 40.6 µM
